25 compounds from patent publication US20240239804A1, “FUROINDAZOLE DERIVATIVES AS ANTAGONISTS OR INHIBITORS OF GPR84” (Bayer Aktiengesellschaft, priority 2021, published 2024) can be followed below.

For orientation: IC50 means the concentration at which inhibition is half-maximal.

Molecules are shown by their SMILES.

This assay deals with T1, human GPR84 receptor (Homo sapiens, UniProt Q9NQS5).
T1 construct: frozen aliquots prepared by acCELLerate; host or cells: CHO-K1
T1 sequence (Q9NQS5 whole entry): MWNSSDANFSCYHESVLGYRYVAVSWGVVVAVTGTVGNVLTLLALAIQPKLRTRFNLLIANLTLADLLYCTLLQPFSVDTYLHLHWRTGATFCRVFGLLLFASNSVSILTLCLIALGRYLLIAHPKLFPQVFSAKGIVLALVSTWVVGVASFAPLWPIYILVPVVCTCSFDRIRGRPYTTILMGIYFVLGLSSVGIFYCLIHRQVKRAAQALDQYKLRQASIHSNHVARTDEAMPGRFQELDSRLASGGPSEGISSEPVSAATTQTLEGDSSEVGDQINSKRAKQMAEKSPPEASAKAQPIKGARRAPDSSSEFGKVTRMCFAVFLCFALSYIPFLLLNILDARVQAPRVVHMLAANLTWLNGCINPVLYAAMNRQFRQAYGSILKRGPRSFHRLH
The experiment in a line: cAMP HTRF assay for identification of cellular GPR84 antagonists. Format: cell-based. As to conditions: CHO-K1 cells stably expressing human GPR84; Forskolin plus agonist 6-OAU; cAMP HTRF readout; average or median values. An excerpt:
cAMP HTRF® Assay for Identification of Cellular GPR84 Antagonists
By using a Homogenous Time-Resolved Fluorescence (HTRF®) based assay (#62AM5PEJ, Cisbio, Condolet, France) the inhibition of the Gi-coupled GPR84 receptor can be detected. CHO-K1 cells stably expressing human GPR84 receptor (purchased from DiscoveRx, now Eurofins) were used and treated with Forskolin (F6886, Sigma, Germany) to stimulate membrane adenylyl cyclases and thereby unspecific cAMP formation. Activation of the Gi-coupled GPR84 by a natural or small molecule agonist (e.g. 6-n-octyl aminouracile, inhouse) results in inhibition of cellular cAMP formation which can be released again by antagonists to this receptor. Detection and quantification of cellular cAMP levels in this HTRF assay is achieved by interaction between a fluorescent cAMP tracer (cAMP-d2) and an Eu-cryptate labelled anti-cAMP antibody. Following excitation at 337 nm this pairing allows for the generation of a fluorescence resonance energy transfer (FRET) between the partners and results in FRET induced emissions at 665 nm and 620 nm, the latter representing background signal by Eu-cryptate labelled anti-cAMP antibody. Maximal signal is obtained in the absence of any cellular cAMP (no competition for the binding of the tracer to the antibody). Given the combination of the Gi coupling properties of GPR84 and the competitive nature of the detection system agonist treatment should result in an increase in the HTRF signal due to lowered cAMP levels. Any signal decrease in the presence of Forskolin, agonist and compound are indicative of antagonist mediated abrogation of GPR84 signalling.
For the assay, frozen aliquots of CHO-K1 cells expressing hGPR84 (prepared by acCELLerate, Hamburg, Germany) were thawed and a cell suspension (1.67E+06 cells/mL) in assay media (Ham's F12 Nutrient Mix, Thermo Fisher Scientific, Waltham, USA; 5% fetal calf serum, Biomol, Hamburg, Germany) containing cAMP-d2 (dilution 1:20, supplied with the kit #62AM5PEJ, Cisbio, Condolet, France) was prepared. After recovery of cells for 20 minutes at 37° C., 3 μL/well cell suspension including cAMP-d2 were added to a pre-dispensed assay plate (Greiner Bio-One, Kremsmuenster, Austria) containing 50 nl/well test compound in 100% DMSO or 100% DMSO as control. This was followed by a 30 minute incubation step at room temperature. The stimulation time was started by addition of 2 μL/well assay media containing 2.5×EC80 agonist 6-OAU and 2.5×EC90 Forskolin (negative control: 2.5×EC90 Forskolin in assay media) and was continued for 30 minutes at room temperature. The reaction was stopped by addition of 3 μL/well lysis buffer containing cAMP Eu-Cryptate antibody (dilution 1:20) (both supplied with the kit #62AM5PEJ, Cisbio, Condolet, France). To enable complete lysis, plates were incubated for 60 minutes at room temperature before measurement in an HTRF reader, e.g. a PHERAstar (BMG Labtech, Ortenberg, Germany).
From the fluorescence emissions at 665 nm (FRET) and at 620 nm (background signal of Eu-cryptate) the ratio (emission at 665 nm divided by emission at 620 nm×10000) was calculated and the data were normalized (reaction without test compound, only 100% DMSO=0% inhibition; all other assay components except agonist=100% inhibition). For dose response testing on the same microtiter plate, compounds were tested at 11 different concentrations in the range of 20 μM to 0.07 nM (20 μM, 5.7 μM, 1.6 μM, 0.47 μM, 0.13 μM, 38 nM, 11 nM, 3.1 nM, 0.89 nM, 0.25 and 0.07 nM; dilution series prepared before the assay at the level of the 100-fold conc. stock solutions by serial 1:3.5 dilutions in 100% DMSO) in duplicate values for each concentration. IC50 values were calculated by 4-parameter fitting using a commercial software package (Genedata Screener, Basel, Switzerland).
Examples were tested in selected biological assays one or more times. […]
In general terms: TR-FRET usually uses a lanthanide donor and a delayed reading to cut background.
As to `Cc1c(C(=O)N2CCC(CO)CC2)oc2c1-c1nn(Cc3ccc(Cl)cc3)cc1CC2` [Example 79, {2-[(4-chlorophenyl)methyl]-8-methyl-4,5-dihydro-2H-furo[2,3-g]indazol-7-yl}[4-(hydroxymethyl)piperidin-1-yl]methanone], the IC50 is 15.5 µM.
`Cc1c(C(=O)NCCCO)oc2c1-c1nn(Cc3ccc(Cl)cc3)cc1CC2` [Example 64, 2-[(4-chlorophenyl)methyl]-N-(3-hydroxypropyl)-8-methyl-4,5-dihydro-2H-furo[2,3-g]indazole-7-carboxamide]: the IC50 is 6.68 µM.
The same measure for `Cc1c(C(=O)NCC2CCCO2)oc2c1-c1nn(Cc3ccccc3Cl)cc1CC2` (racemic) [Example 9, 2-[(2-chlorophenyl)methyl]-8-methyl-N-[(2RS)-tetrahydrofuran-2-ylmethyl]-4,5-dihydro-2H-furo[2,3-g]indazole-7-carboxamide]: 0.046 µM.
Then `Cc1c(C(=O)N2CCC[C@H]2C(N)=O)oc2c1-c1nn(Cc3ccc(Cl)cc3)cc1CC2` [Example 91, 1-{2-[(4-chlorophenyl)methyl]-8-methyl-4,5-dihydro-2H-furo[2,3-g]indazole-7-carbonyl}-L-prolinamide], with at least 20 µM; and `Cc1c(C(=O)NCCN2CCCCC2)oc2c1-c1nn(Cc3cccc(Cl)c3)cc1CC2` [Example 19, 2-[(3-chlorophenyl)methyl]-8-methyl-N-[2-(piperidin-1-yl)ethyl]-4,5-dihydro-2H-furo[2,3-g]indazole-7-carboxamide], with 0.78 µM; and `Cc1c(C(=O)N2CC(Cc3ccccc3)C2)oc2c1-c1nn(Cc3ccc(Cl)cc3)cc1CC2` [Example 49, (3-benzylazetidin-1-yl){2-[(4-chlorophenyl)methyl]-8-methyl-4,5-dihydro-2H-furo[2,3-g]indazol-7-yl}methanone], with 2.59 µM.
Then `Cc1c(C(=O)N2CCCCC2)oc2c1-c1nn(Cc3ccc(Cl)cc3)cc1CC2` [Example 87], with 17.1 µM; and `Cc1c(C(=O)NCc2ccno2)oc2c1-c1nn(Cc3ccc(Cl)cc3)cc1CC2` [Example 28, 2-[(4-chlorophenyl)methyl]-8-methyl-N-[(1,2-oxazol-5-yl)methyl]-4,5-dihydro-2H-furo[2,3-g]indazole-7-carboxamide], with 1.01 µM.
As to `CCN(CC)C(=O)CNC(=O)c1oc2c(c1C)-c1nn(Cc3ccc(Cl)cc3)cc1CC2` [Example 31, 2-[(4-chlorophenyl)methyl]-N-[2-(diethylamino)-2-oxoethyl]-8-methyl-4,5-dihydro-2H-furo[2,3-g]indazole-7-carboxamide], the IC50 came to 2.53 µM.
Then `Cc1c(C(=O)N(C)Cc2ccccn2)oc2c1-c1nn(Cc3ccc(Cl)cc3)cc1CC2` [Example 89, 2-[(4-chlorophenyl)methyl]-N,8-dimethyl-N-[(pyridin-2-yl)methyl]-4,5-dihydro-2H-furo[2,3-g]indazole-7-carboxamide], with 17.4 µM.
Then `Cc1c(C(=O)NCC(N)=O)oc2c1-c1nn(Cc3ccc(Cl)cc3)cc1CC2` [Example 48, N-(2-amino-2-oxoethyl)-2-[(4-chlorophenyl)methyl]-8-methyl-4,5-dihydro-2H-furo[2,3-g]indazole-7-carboxamide], with 2.13 µM; and `Cc1c(C(=O)NCC(F)F)oc2c1-c1nn(Cc3ccc(Cl)cc3)cc1CC2` [Example 65, 2-[(4-chlorophenyl)methyl]-N-(2,2-difluoroethyl)-8-methyl-4,5-dihydro-2H-furo[2,3-g]indazole-7-carboxamide], with 7.45 µM; and `Cc1c(C(=O)NCC(=O)NC2CC2)oc2c1-c1nn(Cc3ccc(Cl)cc3)cc1CC2` [Example 33, 2-[(4-chlorophenyl)methyl]-N-[2-(cyclopropylamino)-2-oxoethyl]-8-methyl-4,5-dihydro-2H-furo[2,3-g]indazole-7-carboxamide], with 3.31 µM.
For `Cc1c(C(=O)N(C)Cc2ccncc2)oc2c1-c1nn(Cc3ccc(Cl)cc3)cc1CC2` [Example 66, 2-[(4-chlorophenyl)methyl]-/,8-dimethyl-N-[(pyridin-4-yl)methyl]-4,5-dihydro-2H-furo[2,3-g]indazole-7-carboxamide], the IC50 was found to be 7.59 µM.
The same measure for `Cc1ccc(Cn2cc3c(n2)-c2c(oc(C(=O)NC[C@@H]4CCCO4)c2C)CC3)cc1` [Example 1, 8-methyl-2-[(4-methylphenyl)methyl]-N-[(2S)-tetrahydrofuran-2-ylmethyl]-4,5-dihydro-2H-furo[2,3-g]indazole-7-carboxamide]: 0.018 µM; for `Cc1c(C(=O)N2CCC(O)CC2)oc2c1-c1nn(Cc3ccc(Cl)cc3)cc1CC2` [Example 71, {2-[(4-chlorophenyl)methyl]-8-methyl-4,5-dihydro-2H-furo[2,3-g]indazol-7-yl}(4-hydroxypiperidin-1-yl)methanone]: 9.57 µM.
For `Cc1c(C(=O)NCCN2CCC2)oc2c1-c1nn(Cc3cccc(Cl)c3)cc1CC2` [Example 20, N-[2-(azetidin-1-yl)ethyl]-2-[(3-chlorophenyl)methyl]-8-methyl-4,5-dihydro-2H-furo[2,3-g]indazole-7-carboxamide], the half-inhibitory concentration (IC50) worked out at 1.54 µM.
Then `Cc1ccccc1Cn1cc2c(n1)-c1c(oc(C(=O)NCC3CCCN3)c1C)CC2` (single isomer, unassigned) [Example 7-1], with 0.72 µM; and `Cc1c(C(=O)N2CCS(=O)(=O)CC2)oc2c1-c1nn(Cc3ccc(Cl)cc3)cc1CC2` [Example 90], with 18.9 µM; and `Cc1c(C(=O)NCc2ccncc2)oc2c1-c1nn(Cc3ccc(Cl)cc3)cc1CC2` [Example 45, 2-[(4-chlorophenyl)methyl]-8-methyl-N-[(pyridin-4-yl)methyl]-4,5-dihydro-2H-furo[2,3-g]indazole-7-carboxamide], with 1.43 µM.
Then `Cc1c(C(=O)NCc2cccn2C)oc2c1-c1nn(Cc3ccc(Cl)cc3)cc1CC2` [Example 44, 2-[(4-chlorophenyl)methyl]-8-methyl-N-[(1-methyl-1H-pyrrol-2-yl)methyl]-4,5-dihydro-2H-furo[2,3-g]indazole-7-carboxamide], with 0.89 µM; and `Cc1c(C(=O)NCC2CCS(=O)(=O)C2)oc2c1-c1nn(Cc3ccc(Cl)cc3)cc1CC2` (stereo not shown) [Example 59, 2-(4-chlorobenzyl)-N-[(1,1-dioxidotetrahydrothiophen-3-yl)methyl]-8-methyl-4,5-dihydro-2H-furo[2,3-g]indazole-7-carboxamide], with 5.28 µM; and `Cc1c(C(=O)N(C)Cc2ncc[nH]2)oc2c1-c1nn(Cc3ccc(Cl)cc3)cc1CC2` [Example 74, 2-[(4-chlorophenyl)methyl]-N-[(1H-imidazol-2-yl)methyl]-N,8-dimethyl-4,5-dihydro-2H-furo[2,3-g]indazole-7-carboxamide], with 10.8 µM.
The same measure for `Cc1c(C(=O)NC[C@@H]2CCCO2)oc2c1-c1nn(C(C)c3ccccc3F)cc1CC2` (mixture of isomers) [Example 95, 2-[(1RS)-1-(2-fluorophenyl)ethyl]-8-methyl-N-[(2S)-tetrahydrofuran-2-ylmethyl]-4,5-dihydro-2H-furo[2,3-g]indazole-7-carboxamide]: 0.75 µM.
With `Cc1ccccc1Cn1cc2c(n1)-c1c(oc(C(=O)NC[C@@H]3COCCO3)c1C)CC2` [Example 5, N-{[(2R)-1,4-dioxan-2-yl]methyl}-8-methyl-2-[(2-methylphenyl)methyl]-4,5-dihydro-2H-furo[2,3-g]indazole-7-carboxamide], the IC50 was found to be 0.009 µM.
